In assay [1] the test system is etiolated soybean seedlings. As to the kind of experiment: Soybean seedlings irradiated with low fluence UV, grown with or without phenylalanine in the growth media. The class given is in vivo, soybean (Glycine max L.). To be noted: for protection from the effects of high energy UV (lack of seed development, seed death): 1 mM phenylalanine in growth media, low fluence 300, 305, 311 or 317 nm on day 3 after planting. An excerpt:
Three varieties, Williams, Forrest, and Williams 82, serve as the progenitor germplasms used in many US soybean breeding programs. These germplasms were used in the experiments described in the Examples, and representative data is shown. In general soybean experiments are done using etiolated seedlings irradiated 3 days after planting or 7 days after planting, in contrast to the regime (6 days dark growth) used for Arabidopsis experiments. For the soybean experiments we have used a high intensity light source filtered through narrow band pass for a low fluence radiation dose of (10^4 μmol m^−2), with (10 nm half band width) filters of peak pass-through at 300, 305, 311, 317, 325, 332 and 368 nm. Soybean primary leaves are sensitive to UV, with the greatest damage occurring in response to irradiation with the greatest energy (smallest wavelength). Three day old etiolated wild type Williams, Forest and Williams 82 soybean seedlings of were individually irradiated with a single low fluence pulse of 300, 305, 311, 317, 325, 332, 368 nm or no light (as a control). After irradiation seedlings were maintained in a summer day-night cycle (14 hr white light: 10 hr dark) to allow for photoreactivation and other forms of light mediated repair until day 8. Irradiation with 300, 305 or 311 nm light results in a “severe” damage with a greater then 70% mortality rate by day 8 (FIGS. 9,10). Irradiation with 317 or 325 nm results in a ‘moderate’ response, with a mortality of approximately 20%. […] Seedlings irradiated with 300, 317 or 368 nm light, or no UV light (as a control) were assessed 3, 7, 14, 21 and 28 days post planting. […] The very young seedlings were able to use the phenylalanine in the growth media to supplement the limiting amounts available in the seed to produce a larger quantity of UV screening pigments, and perhaps other compounds important to UV protection, thereby protecting themselves against the UV itself and perhaps enacting enhanced repair functions after the UV irradiation. […]

Assay [2] has as its system etiolated Arabidopsis seedlings. As to the kind of experiment: Cotyledon natural fluorescence by deconvoluting microscopy. The class given is in vivo. Particulars: 1.0 mM Phe in medium; salt stress; mutant seedlings; listed as Phe. The protocol:
Fluorescent images were obtained of living unfixed seedlings 24 h post BL or ABA treatment as described in the “Plant Growth and Preparation of Tissue” section. Optical sectioning was achieved by using a Zeiss Axiovert 200M microscope (Carl Zeiss), equipped with ApoTome (collected by grid projection), and a digital camera and the 4#,6-diamino-phenylindole, fluorescein isothiocyanate, and Texas Red filter sets (Chroma). Photographs of whole cotyledon fluorescence were snapped on the same microscope set up, minus the apoTome setting.
The preparation of whole cell extracts from the areal portions of the seedlings for the quantification of Phe levels and PD1 activity levels is described in (Warpeha et al., Plant Physiol. 143:1590-1600, 2007). Phe concentration is determined by HPLC. […] Natural fluorescence of the cotyledons is visualized and quantitated by deconvoluting microscopy using a “DAPI-Long Pass” filter which allows excitation between 300-380 nm and emits with a cutoff […] 400 nm.
If the Phe produced by activated PD1 is necessary for the ability of young etiolated seedlings to respond to UV-B, salt or heat stress, then it is possible that the addition of exogenous Phe (effectively cross feeding Phe) could restore a wild type response to GCR1, GPA1 and PD1 mutants when assayed for cotyledon fluorescence and the ability to survive sub-lethal levels of UV-C. To determine if exogenous Phe can restore wild type responses to GCR1, GPA, and PD1 mutants, 1 mM Phe is added to the top agar during planting and the experiment described above specifically testing for cotyledon surface fluorescence and the ability to survive sub-lethal levels of UV-C is repeated. Serine and […] are used as negative controls in these assays.
The experiments described above for examining if GCR1, GPA1 and PD1 are required for young etiolated seedlings to respond to UV-B, salt or heat stress are performed but with ABA, ACC, JA and SA substituting for UV-B, salt and heat. For these experiments, ABA is tested at 1.0 μM dissolved in ethanol and applied as an atomized mist. […]

In the next assay the test system is Japanese beetles. As to the kind of experiment: Predation on Harosoy soybean grown outside, with or without Phe in the planting media. Particulars: 1 mM Phe in planting media; 300 nm or no light on day 3; 21 d outside; listed as Phe. The class given is in vivo. The protocol:
As Phe is the starting substrate of the phenylpropanoid pathway it may be that inclusion of Phe in the growth media of young seedlings allows for the synthesis of many phenylpropanoids in addition to those that can act as UV-B screening pigments, and thereby prevent the deleterious effects other abiotic and biotic stress. To test this hypothesis we planted sets of seeds of Harosoy dense and Harosoy glabrous. Planting media for one set of plants of each isoline was supplemented with 1 mM final concentration of Phe. Three d after planting, germinating sets of seedlings were irradiated with a low fluence pulse of 300 nm (i.e. an abiotic stress), or no light (Untreated), then transplanted outside to grow in natural conditions for 21 d during the normal growing season. A random planting pattern for was generated for the six One leaf from the first set of leaves and one leaf (the middle of the trifoliate) from the second set of leaves was harvested on day 21. These leaves were each weighed directly (fresh weight) and scanned to have a pictorial representation of the experienced damage as shown in FIG. 28. […] Comparison among the six variations indicates predation mainly on the glabrous (hairless) plants.

The structures appear in SMILES notation. “Also recorded” adds a separate entry of the source.

Regarding `N[C@@H](Cc1ccccc1)C(=O)O` [phenylalanine], the “growth characteristics after UV irradiation” value in assay [1] (1.0 mM Phe in growth media, seven d post-irradiation) is “restores growth characteristics regardless of UV wavelength”. Besides, the “protection from the effects of high energy UV (lack of seed development, seed death)” value in assay [1] was “able to ameliorate the most negative of the effects of high energy UV”; in assay [1] (listed as Phe) it was “can overcome the most deleterious effects of high energy UV in soybean”. Moreover, the “restoration of cotyledon surface fluorescence in mutants” value in assay [2] was “can restore the responses in the mutants to those observed for wild type seedlings; also recorded: can restore wild type responses to AGB1 and AGG1 mutants”. Also, the predation on leaves entry in the assay with Japanese beetles is recorded as “experienced less predation; also recorded: can be reduced”.

The values are drawn from patent US8492614B2, “Plant biochemical systems and uses thereof” (The Board of Trustees of the University of Illinois, priority 2007, dated 2013).
